Results from patent US12115208B2, “Small-molecule adjuvants for antibiotics to address antibiotic resistance” (HIGH POINT UNIVERSITY, priority 2017, dated 2024).
Where two headings read alike, the source gives them in different places.

Legend:
[1] = system: S. aureus ATCC 29213; assay: Minimum inhibitory concentration, broth microdilution; type: cell-based; conditions: Staphylococcus aureus, ATCC29213; compound alone; S. aureus ATCC 29213; CAMHB, 18 h; read-out: MIC
Experimental: (§1) The compounds were then analyzed for antibiotic repotentiation activity. […] The tested strains included USA300, which is a common and particularly virulent strain of community-acquired MRSA.

[2] = system: S. aureus ATCC 43300 (MRSA); assay: as above; type: cell-based, Staphylococcus aureus; conditions: Staphylococcus aureus; compound alone; S. aureus ATCC 43300 (MRSA); CAMHB, 18 h; read-out: MIC
Experimental: as §1

[3] = system: S. aureus USA300 (MRSA); assay: as above; type: cell-based, Staphylococcus aureus; conditions: Staphylococcus aureus; compound alone; S. aureus USA300 (MRSA); CAMHB, 18 h; read-out: MIC
Experimental: as §1

[4] = system: S. aureus ATCC 29213; assay: Antibiotic repotentiation (antibiotic MIC with/without compound); type: cell-based, Staphylococcus aureus; conditions: ATCC 29213
[5] = system: S. aureus USA300 (MRSA); assay: as above; type: cell-based, Staphylococcus aureus; conditions: USA300 (MRSA)
[6] = system: S. epidermidis 49461; assay: Antibiotic repotentiation (oxacillin MIC with/without compound); type: cell-based, Staphylococcus epidermidis; conditions: +75 μM compound; S. epidermidis 49461
Experimental: The overnight culture was diluted into fresh CAMHB to a concentration of 5×10^5 CFU/ml. […] On the same plate, a standard microdilution MIC with the tested antibiotics and no added compound was also performed to compare the antibiotic MIC in the presence and absence of compound. […] Fold reductions were calculated by dividing the MIC of the antibiotic without compound by the MIC of the antibiotic in the presence of compound.
Antibiotic potentiation in S. epidermidis was also investigated.

[7] = system: MRSA; assay: Growth curves; type: cell-based, Staphylococcus aureus; conditions: MRSA in CAMHB
Experimental: The overnight culture was diluted into fresh CAMHB to a concentration of 5×10^5 CFU/ml. The cell suspension (3 mL) was aliquoted into sterile culture tubes and compound was added to achieve the desired concentrations. An untreated aliquot served as the control. 200 μl of each suspension or of the untreated control was aliquoted into a flat-bottomed microtiter plate. The plate was maintained at 37° C. with shaking and absorbance readings (600 nm) were recorded every 30 minutes for 24 hours.
MRSA was grown in cation-adjusted Mueller-Hinton broth (CAMHB). […] The optical density of the cultures at 600 nm was measured every 2 hours for 8 hours and again at 24 hours.

[8] = system: blaI mRNA; assay: RT-qPCR mRNA levels; type: cell-based, Staphylococcus aureus (MRSA); conditions: co-treatment amoxapine and oxacillin vs oxacillin alone
Experimental: (§2) Triplicate cultures of each condition were briefly centrifuged and cell pellets were stored at −80° C. Pellets were resuspended in 100 uL of lyphostaphin (1 mg/mL) and incubated at room temperature for 10 minutes. Next, lysates were subjected to a Qiashredder column and RNA was purified with RNeasy columns according to the manufacturer's protocol (Qiagen). An on-column DNase step was also included. Total RNA was quantified and purity was assessed with a Nanodrop spectrophotometer (Thermo Scientific). RNA integrity was visualized by agarose gel electrophoresis using GelRed (Phenix) and a ChemiDoc MP (BioRad).
(§3) 200 ng of total RNA was reverse transcribed using random primers, according to the manufacturer's protocol (BioRad select cDNA synthesis kit). Minus reverse transcriptase controls were prepared for each sample. Next, duplicate qPCR reactions were performed for each cDNA template using SYBR green according to the manufacturer's protocol (BioRad SYBR Green Supermix). Primer sequences are found in Supporting Information. Those that the authors designed used NCBI Primer Blast to specify the annealing temperatures, length, location, and analyze specificity and secondary structure. All reactions were run on a StepOne thermal cycler (Applied Biosystems). Cycling parameters were as follows: 95° C. for 10 minutes, 40 cycles of 95° C. for 15 seconds followed by 60° C. for 1 minute. Specificity of each primer pair was assessed with melt curve analyses and agarose gel electrophoresis. The efficiency of each primer pair was calculated using results from calibration curves generated in Microsoft Excel. Contaminating genomic DNA levels were calculated using the comparative Ct method. Gene expression levels relative to 16S rRNA were calculated using a relative quantification model.^17 Statistical significance was determined by unpaired student's t tests. All calculations were performed using Microsoft Excel.
(§4) See Blazquez, B. et al., “Regulation of the expression of the beta-lactam antibiotic-resistance determinants in methicillin-resistant Staphylococcus aureus (MRSA),” Biochemistry 2014, 53 (10), 1548; Staude, M. W. et al., “Investigation of signal transduction routes within the sensor/transducer protein BlaR1 of Staphylococcus aureus,” Biochemistry 2015, 54 (8), 1600; Thumanu, K., et al., “Discrete steps in sensing of beta-lactam antibiotics by the BlaR1 protein of the methicillin-resistant Staphylococcus aureus bacterium,” Proc Natl Acad Sci USA 2006, 103 (28), 10630, which are incorporated herein by reference in their entireties.

[9] = system: blaZ mRNA; assay: RT-qPCR mRNA levels; type: cell-based, Staphylococcus aureus (MRSA)
Experimental: as §2, §3, §4

[10] = system: mecA mRNA; type: cell-based, Staphylococcus aureus (MRSA); conditions: co-treatment amoxapine and oxacillin vs oxacillin alone
Experimental: as §2
(§5) 200 ng of total RNA was reverse transcribed using random primers, according to the manufacturer's protocol (BioRad select cDNA synthesis kit). Minus reverse transcriptase controls were prepared for each sample. […] Specificity of each primer pair was assessed with melt curve analyses and agarose gel electrophoresis. The efficiency of each primer pair was calculated using results from calibration curves generated in Microsoft Excel. Contaminating genomic DNA levels were calculated using the comparative Ct method. Gene expression levels relative to 16S rRNA were calculated using a relative quantification model.^17 Statistical significance was determined by unpaired student's t tests. […]

[11] = system: mecI mRNA; type: cell-based, Staphylococcus aureus (MRSA); conditions: co-treatment amoxapine and oxacillin vs oxacillin alone
Experimental: as §2, §5

[12] = system: pbp2 mRNA; assay: RT-qPCR mRNA levels; type: cell-based, Staphylococcus aureus (MRSA); conditions: co-treatment amoxapine and oxacillin vs oxacillin alone
Experimental: as §2, §5

[13] = target: β-lactamase, MSSA ATCC 29213 (Staphylococcus aureus, UniProt P00807); conditions: MSSA 29213
β-lactamase, MSSA ATCC 29213, sequence (P00807 25-281): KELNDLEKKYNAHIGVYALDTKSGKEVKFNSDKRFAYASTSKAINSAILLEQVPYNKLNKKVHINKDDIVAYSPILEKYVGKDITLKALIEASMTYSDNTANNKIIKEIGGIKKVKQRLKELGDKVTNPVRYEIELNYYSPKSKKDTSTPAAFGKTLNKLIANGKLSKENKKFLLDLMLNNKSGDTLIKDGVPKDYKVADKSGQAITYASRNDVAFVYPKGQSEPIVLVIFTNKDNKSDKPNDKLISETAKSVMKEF
Experimental: For whole cell nitrocefin assays, bacteria was cultured overnight in CAMHB at 37° C. with shaking. The overnight culture was subcultured 1:100 in fresh CAMHB and grown at 37° C. with shaking to mid-log phase (OD600=0.4-0.6). The culture was adjusted to an OD600 of 0.2 in fresh CAMHB. […] These suspensions were incubated at 37° C. with shaking for thirty minutes. The suspensions were adjusted to an OD600 of 0.132 in phosphate buffered saline (PBS, pH 7, 900 μl). A 100 μl of a stock solution of nitrocefin (500 mg/ml in PBS) was added to these suspensions and mixed. The nitrocefin-bacteria suspensions (100 μl) were added to the wells of a clear 96-well polystyrene microtiter plate. A 50 mg/ml solution of nitrocefin in PBS served as a blank. Using BioTek Synergy H1 microplate reader maintained at 37° C., the absorbance at 486 nm was recorded every 5 minutes for 2 hours.
The known β-lactamase inhibitor sulbactam was used as a positive control. Again, all assays were run in triplicate and each data point represents the average of three data points.

In the case of Clc1ccc2c(c1)C(N1CCNCC1)=Nc1ccccc1O2 [Amoxapine, 2-chloro-11-(1-piperazinyl)dibenz[b,f][1,4]oxazepine], the MIC [1] is reported as 600 µM, the MIC [2] is reported as 600 µM and the MIC [3] is reported as 600 µM. The “Oxacillin MIC” value ([4]; +75 μM compound) was 0.25 µg/mL, the “Oxacillin MIC” value ([4]; +150 μM compound) was 0.125 µg/mL and the “Oxacillin MIC” value ([5]; +75 μM compound) was 16 µg/mL. For the same molecule, the “Oxacillin MIC” value ([5]; +150 μM compound) was 2 µg/mL, the “Oxacillin MIC” value [6] was 4 µg/mL and the “effect on cell density (OD 600 nm) throughout the experiment” value ([7]; combination of oxacillin (1 μg/mL) and amoxapine (150 μM), 24 h) was “potent inhibition of cell density”. The “effect on cell density (OD 600 nm) after 24 hours” value ([7]; single treatment: oxacillin 1 μg/mL alone or amoxapine 150 μM alone) was “negligible effect”, the “reduction in blaI levels” value [8] was 2.2 fold and the “effect on mRNA levels” value ([9]; amoxapine alone vs untreated control (data not shown)) was “no significant effect”. The “reduction in blaZ levels” value ([9]; co-treatment amoxapine and oxacillin vs oxacillin alone) was 3.0 fold, the “reduction in mecA mRNA levels” value [10] was 4.5 fold and the “reduction in mecI mRNA levels” value [11] was 3.0 fold. For the same molecule, the “effect on mRNA levels of pbp2” value [12] was “no significant effect”, the “effect on β-lactamase activity (nitrocefin hydrolysis)” value ([13]; oxacillin in combination with amoxapine) was “little effect” and the “effect on β-lactamase activity (nitrocefin hydrolysis)” value ([13]; treatment alone, compared to untreated cells) was “no effect”.
